From patent US20110046046A1, “PROPHYLACTIC OR THERAPEUTIC COMPOSITION FOR DIABETES OR OBESITY” (priority 2008, published 2011)
*1 amine or outer side, *2 acyl side, *3 side chain or, on linkers, in order; H or OH if unused. Where no end group is shown, it is not given here. [ ]: non-standard residue; d: D form. γGlu = O=C(O)[C@H](CCC(=O)[*:2])N[*:1]; Met(O) = CS(=O)CC[C@H](N)C(=O)O

Assays:
[1] = test system: calcium receptor; settings: shown in WO 2007/055388, WO 2007/055393, WO 2008/139945-7; J. Biol. Chem. 2006; cited from earlier work
[2] = test system: GLP-1-producing cell strain GLUTag; assay: Function to promote secretion of GLP-1 from GLUTag cells; assay type: cell-based, mouse; settings: incubation 37° C. for 60 minutes, GLP-1 in supernatant by Enzyme immuno assay, vs Hepes B buffer control, FIGS. 2 and 3
Experimental: A GLP-1-producing cell strain GLUTag derived from the mouse large intestine was cultured in a Dulbecco's modified Eagle's medium supplemented with 10% FBS at 37° C. in the presence of 5% CO2. The GLUTag cells were cultured in a 48-well plate for 2 to 3 days until the cells reached a subconfluent state. Prior to the addition of each of samples, the wells were washed with a Hepes B buffer (140 mM NaCl, 4.5 mM KCl, 20 mM Hepes, 1.2 mM CaCl2, 1.2 mM MgCl2, 10 mM D-glucose, 0.1% BSA, pH 7.4), 80 μl of a sample solution obtained by dissolving each of the samples in the same buffer were added to the wells, and incubation was performed at 37° C. for 60 minutes. γ-Glu-Cys-Gly and cinacalcet were used as the samples. Further, the Hepes B buffer was used as a control. After supernatant collection, the cells were precipitated by centrifugation (800×g, 5 minutes, 4° C.), and 70 μl of the supernatant were collected and cryopreserved. The concentration of GLP-1 in the supernatant was measured with a commercially available Enzyme immuno assay kit (Yanaihara Institute Inc.).
In the same manner as in Example 2, a function to promote the secretion of GLP-1 was examined using a GLP-1-producing cell strain GLUTag. γ-Glu-Cys and protamine were used as samples.

[3] = test system: CCK-producing cell strain STC-1; assay: Function to promote secretion of CCK from STC-1 cells; assay type: cell-based, mouse; settings: incubation 37° C. for 60 minutes, CCK in supernatant by Enzyme immuno assay, vs Hepes B buffer control, FIG. 1
Experimental: A CCK-producing cell strain STC-1 derived from the mouse small intestine was cultured in a Dulbecco's modified Eagle's medium supplemented with 10% FBS at 37° C. in the presence of 5% CO2. The STC-1 cells were cultured in a 48-well plate for 2 to 3 days until the cells reached a subconfluent state. Prior to the addition of each of the samples, the wells were washed with a Hepes B buffer (140 mM NaCl, 4.5 mM KCl, 20 mM Hepes, 1.2 mM CaCl2, 1.2 mM MgCl2, 10 mM D-glucose, 0.1% BSA, pH 7.4), […] of a sample solution obtained by dissolving each of the samples in the same buffer were added to the wells, and incubation was performed at 37° C. for 60 minutes. γ-Glu-Cys-Gly (Sigma-Aldrich Japan K.K.), γ-Glu-Val-Gly, and cinacalcet were used as the samples. Further, the Hepes B buffer was used as a control. After supernatant collection, the cells were precipitated by centrifugation (800×g, 5 minutes, 4° C.), and 80 μl of the supernatant were collected and cryopreserved.
After the supernatant had been pretreated with an OASIS cartridge (C18), the concentration of CCK in the supernatant was measured with an Enzyme immuno assay kit (Phoenix Pharmaceuticals).

[4] = test system: male SD rats; assay: GLP-1 secretion test in rats (ligated ileal loop); assay type: in vivo; settings: rat, 20 mg/2 mL deionized water into ligated ileum loop, ileal mesenteric vein blood 30-120 minutes, compared to water administration group; FIG. 4
Experimental: After male SD rats (8-week-old) had been preliminarily fed, fasted overnight, and subjected to celiotomy under ketamine/xylazine anesthesia. GLP-1-producing cells are mainly distributed in an ileal site. Thus, after a ligated ileal loop (30 cm) had been prepared, a catheter was placed into the ileal mesenteric vein, and blood was collected from the catheter at the time of 0 minute (0 time). A sample (2 mL of deionized water, 20 mg of γ-Glu-Cys/2 mL of deionized water) was administered into the ligated ileum loop, blood was collected at 30, 60, 90, and 120 minutes after administration, respectively, and the plasma GLP-1 concentration was measured with an Enzyme immuno assay kit (manufactured by Yanaihara Institute Inc.).

[5] = test system: male SD rats; assay: Oral glucose tolerance test in rats; assay type: in vivo; settings: rat, oral 160 mg/kg with glucose 2 g/kg, at 15 and 30 minutes after glucose administration, compared to glucose solution alone; FIG. 5
Experimental: After male SD rats (7-week-old) had been preliminarily fed (for 3 to 4 days), and fasted overnight, they were subjected to an oral glucose tolerance test. Tail vein blood before specimen administration was collected, and a sample [glucose solution alone (2 g/kg weight)/glucose solution comprising γ-Glu-Cys (160 mg/kg weight)] was orally administered with a feeding tube. After sample administration, tail vein blood was collected at 15, 30, 60, 90, and 120 minutes, and the plasma glucose concentration was measured with a commercially available kit (manufactured by Wako Pure Chemical Industries, Ltd.).

γ-Glu-Cys(S-Me)
calcium receptor activation [1]: activate a calcium receptor

protamine
promotion of secretion of GLP-1 [2]: functioned to promote the secretion of GLP-1

Cys-Met
calcium receptor activation [1]: activate a calcium receptor

γ-Glu-t-Leu
calcium receptor activation [1]: activate a calcium receptor

[γGlu]-Leu
calcium receptor activation [1]: activate a calcium receptor

Glu-Cys
calcium receptor activation [1]: activate a calcium receptor

γ-Glu-Tau
calcium receptor activation [1]: activate a calcium receptor

[γGlu]-Val
calcium receptor activation [1]: activate a calcium receptor

γ-Glu-Orn
calcium receptor activation [1]: activate a calcium receptor

[γGlu]-Gly
calcium receptor activation [1]: activate a calcium receptor

γ-Glu-Cys(S-Me)(O)
calcium receptor activation [1]: activate a calcium receptor

C[C@@H](NCCCc1cccc(C(F)(F)F)c1)c1cccc2ccccc12 [cinacalcet, (R)-N-(3-(3-(trifluoromethyl)phenyl)propyl)-1-(1-naphthyl)ethylamine, reference compound]
promotion of secretion of CCK [3]: functioned to promote the secretion of CCK | promotion of secretion of GLP-1 [2]: functioned to promote the secretion of GLP-1

Cys-Gly
calcium receptor activation [1]: activate a calcium receptor

[γGlu]-[γGlu]-Val
calcium receptor activation [1]: activate a calcium receptor

[γGlu]-Cys
promotion of secretion of GLP-1 [2]: functioned to promote the secretion of GLP-1 | plasma GLP-1 concentration [4]: significantly higher elevation of plasma GLP-1 concentration | calcium receptor activation [1]: activate a calcium receptor | blood glucose concentration [5]: significantly lower blood glucose concentration value

[γGlu]-Ile
calcium receptor activation [1]: activate a calcium receptor

[γGlu]-Thr
calcium receptor activation [1]: activate a calcium receptor

[γGlu]-[Met(O)]
calcium receptor activation [1]: activate a calcium receptor

N[C@@H](CCC(=O)N[C@@H](CS)C(=O)NCC(=O)O)C(=O)O [γ-Glu-Cys-Gly]
promotion of secretion of CCK [3]: functioned to promote the secretion of CCK | promotion of secretion of GLP-1 [2]: functioned to promote the secretion of GLP-1 | calcium receptor activation [1]: is a calcium receptor activator

Leu-Asp
calcium receptor activation [1]: activate a calcium receptor

[γGlu]-Val-NH2
calcium receptor activation [1]: activate a calcium receptor

[γGlu]-Val-Gly
promotion of secretion of CCK [3]: functioned to promote the secretion of CCK

[γGlu]-Met
calcium receptor activation [1]: activate a calcium receptor

Asp-Gly
calcium receptor activation [1]: activate a calcium receptor

[γGlu]-Ala
calcium receptor activation [1]: activate a calcium receptor

γ-Glu-Val-ol
calcium receptor activation [1]: activate a calcium receptor

[γGlu]-Ser
calcium receptor activation [1]: activate a calcium receptor

Gly-Cys
calcium receptor activation [1]: activate a calcium receptor
